pIC50: −log10 of the molar value. Where a SMILES comes first, the peptide text is derived from it. Bridges are numbered along the chain shown (N, C = ends). [ ]: non-standard residue; d: D form. The star is where a group is joined. ξ: configuration not given here. Bip = N[C@@H](Cc1ccc(-c2ccccc2)cc1)C(=O)O; Ala(2-furyl) = N[C@@H](Cc1ccco1)C(=O)O; Phe(3-Me) = Cc1cccc(C[C@H](N)C(=O)O)c1; Val(3-OH) = CC(C)(O)[C@H](N)C(=O)O; 4Pal = N[C@@H](Cc1ccncc1)C(=O)O; Cha = N[C@@H](CC1CCCCC1)C(=O)O; Thr(3ξ) = CC(O)[C@H](N)C(=O)O; Carboxymethyl = O=C(O)C*; Orn = NCCC[C@H](N)C(=O)O; Dab = NCC[C@H](N)C(=O)O; NH(CH2)3NH2 = NCCCN*
Target: T1, human PD-1 / PD-L1-Ig binding on Jurkat cell line over-expressing human PD-1 (Jurkat-PD-1) (Homo sapiens, UniProt Q15116)
T1 construct: expressed in transfected cells; host or cells: Jurkat
T1 sequence (Q15116 25-288): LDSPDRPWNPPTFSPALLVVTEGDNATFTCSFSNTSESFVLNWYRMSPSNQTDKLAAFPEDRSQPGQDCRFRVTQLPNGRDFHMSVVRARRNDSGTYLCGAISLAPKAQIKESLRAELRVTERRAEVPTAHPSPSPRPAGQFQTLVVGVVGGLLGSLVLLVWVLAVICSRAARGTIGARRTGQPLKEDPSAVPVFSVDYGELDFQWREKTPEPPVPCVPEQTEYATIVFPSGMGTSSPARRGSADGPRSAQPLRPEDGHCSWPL
Test: Jurkat-PD-1 Cell Binding High-Content Screening Assay (CBA)
Type: cell-based
Conditions: Jurkat-PD-1 cells, PE-labeled PD-L1-Ig 20 nM final; read-out: Jurkat HPD1_PDL1 IC50
How it was run: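 Binding of fluorescent PD-L1-Ig (phycoerythrin linked via the Ig tag, 20 nM final) to PD-1-overexpressing Jurkat cells was imaged after a 2 h, 37° C compound pretreatment and 1 hour ligand incubation.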

SMILES	pIC50
Cc1cccc(C[C@@H]2NC(=O)[C@H](CC(=O)O)NC(=O)[C@H](Cc3ccc(OCC(=O)O)cc3)NC(=O)[C@H](Cc3ccco3)NC(=O)CSC[C@@H](C(=O)N[C@@H](CCN)C(N)=O)NC(=O)[C@H](Cc3cnc[nH]3)NC(=O)[C@H](C(C)(C)O)NC(=O)[C@H](CC3CCCCC3)NC(=O)[C@H](CCN)NC(=O)[C@@H](CC(C)C)NC(=O)[C@H](CCCN)NC(=O)[C@H](Cc3ccc(OCC(=O)O)cc3)NC(=O)[C@H](Cc3ccc(-c4ccccc4)cc3)NC(=O)[C@H](Cc3ccc(OCC(=O)O)cc3)NC2=O)c1 [Compound 2646] ({CH2CO}-[Ala(2-furyl)]Y(Carboxymethyl)D[Phe(3-Me)]Y(Carboxymethyl)[Bip]Y(Carboxymethyl)[Orn][dL][Dab][Cha][Val(3-OH)]HC[Dab]-NH2; thioether N-14)	8.08
Cc1cccc(C[C@@H]2NC(=O)[C@H](CC(=O)O)NC(=O)[C@H](Cc3ccc(OCC(=O)O)cc3)NC(=O)[C@H](CCN)NC(=O)CSC[C@@H](C(=O)N[C@@H](CO)C(=O)NCCCN)NC(=O)[C@H](C(C)O)NC(=O)[C@H](C(C)(C)O)NC(=O)[C@H](CC3CCCCC3)NC(=O)[C@H](Cc3cnc[nH]3)NC(=O)[C@@H](CC(C)C)NC(=O)[C@H](CCCN)NC(=O)[C@H](Cc3ccc(OCC(=O)O)cc3)NC(=O)[C@H](Cc3ccc(-c4ccccc4)cc3)NC(=O)[C@H](Cc3ccc(OCC(=O)O)cc3)NC2=O)c1 (stereo partly drawn) [Compound 2648] ({CH2CO}-[Dab]Y(Carboxymethyl)D[Phe(3-Me)]Y(Carboxymethyl)[Bip]Y(Carboxymethyl)[Orn][dL]H[Cha][Val(3-OH)][Thr(3ξ)]CS-{NH(CH2)3NH2}; thioether N-14)	7.01
Cc1cccc(C[C@@H]2NC(=O)[C@H](CC(=O)O)NC(=O)[C@H](Cc3ccc(OCC(=O)O)cc3)NC(=O)[C@H](Cc3cnc[nH]3)NC(=O)CSC[C@@H](C(=O)N[C@@H](CCN)C(N)=O)NC(=O)[C@H](C(C)O)NC(=O)[C@H](C(C)(C)O)NC(=O)[C@H](CC3CCCCC3)NC(=O)[C@H](CCN)NC(=O)[C@@H](CC(C)C)NC(=O)[C@H](CCCN)NC(=O)[C@H](Cc3ccc(OCC(=O)O)cc3)NC(=O)[C@H](Cc3ccc(-c4ccccc4)cc3)NC(=O)[C@H](Cc3ccc(OCC(=O)O)cc3)NC2=O)c1 (stereo partly drawn) [Compound 2649] ({CH2CO}-HY(Carboxymethyl)D[Phe(3-Me)]Y(Carboxymethyl)[Bip]Y(Carboxymethyl)[Orn][dL][Dab][Cha][Val(3-OH)][Thr(3ξ)]C[Dab]-NH2; thioether N-14)	8.14

More lines, now with the values ahead:

pIC50	SMILES
7.64	Cc1cccc(C[C@@H]2NC(=O)[C@H](CC(=O)O)NC(=O)[C@H](Cc3ccc(OCC(=O)O)cc3)NC(=O)[C@H](Cc3ccncc3)NC(=O)CSC[C@@H](C(=O)N[C@@H](CO)C(=O)NCCCN)NC(=O)[C@H](C(C)O)NC(=O)[C@H](C(C)(C)O)NC(=O)[C@H](CC3CCCCC3)NC(=O)[C@H](Cc3cnc[nH]3)NC(=O)[C@@H](CC(C)C)NC(=O)[C@H](CCCN)NC(=O)[C@H](Cc3ccc(OCC(=O)O)cc3)NC(=O)[C@H](Cc3ccc(-c4ccccc4)cc3)NC(=O)[C@H](Cc3ccc(OCC(=O)O)cc3)NC2=O)c1 (stereo partly drawn) [Compound 2647] ({CH2CO}-[4Pal]Y(Carboxymethyl)D[Phe(3-Me)]Y(Carboxymethyl)[Bip]Y(Carboxymethyl)[Orn][dL]H[Cha][Val(3-OH)][Thr(3ξ)]CS-{NH(CH2)3NH2}; thioether N-14)
7.41	Cc1cccc(C[C@@H]2NC(=O)[C@H](CC(=O)O)NC(=O)[C@H](Cc3ccc(OCC(=O)O)cc3)NC(=O)[C@H](Cc3cnc[nH]3)NC(=O)CSC[C@@H](C(=O)N[C@H](C)C(N)=O)NC(=O)[C@H](C(C)O)NC(=O)[C@H](C(C)(C)O)NC(=O)[C@H](CC3CCCCC3)NC(=O)[C@H](CCN)NC(=O)[C@@H](CC(C)C)NC(=O)[C@H](CCCN)NC(=O)[C@H](Cc3ccc(OCC(=O)O)cc3)NC(=O)[C@H](Cc3ccc(-c4ccccc4)cc3)NC(=O)[C@H](Cc3ccc(OCC(=O)O)cc3)NC2=O)c1 (stereo partly drawn) [Compound 2650] ({CH2CO}-HY(Carboxymethyl)D[Phe(3-Me)]Y(Carboxymethyl)[Bip]Y(Carboxymethyl)[Orn][dL][Dab][Cha][Val(3-OH)][Thr(3ξ)]C[dA]-NH2; thioether N-14)
